In the supplement of paper PMC13380429:
Structures can show the parent of a compound that is named as a salt.

Key:
Settings in all cases: 72 h
Caco-2 [1] = test: relative viability EC50 (midpoint between 100% and the lowest measured viability); higher = less toxic
Calu-3 [2] = test: as above
Vero E6 [3] = test: as above
HepG2 [4] = test: as above
U2OS [5] = test: as above
Caco-2 [6] = test: drug sensitivity score (DSS) for viability; higher = more toxic; extreme values may be limits of the assay
Calu-3 [7] = test: as above
Vero E6 [8] = test: as above
HepG2 [9] = test: as above
U2OS [10] = test: as above
Caco-2 [11] = test: cell viability relative to DMSO; higher = less toxic
Calu-3 [12] = test: as above
Vero E6 [13] = test: as above
HepG2 [14] = test: as above
U2OS [15] = test: as above

Row | Structure (SMILES) | relative viability EC50 (Caco-2 [1]) [µM] | relative viability EC50 (Calu-3 [2]) [µM] | relative viability EC50 (Vero E6 [3]) [µM] | relative viability EC50 (HepG2 [4]) [µM] | relative viability EC50 (U2OS [5]) [µM] | drug sensitivity score (Caco-2 [6]) | drug sensitivity score (Calu-3 [7]) | drug sensitivity score (Vero E6 [8]) | drug sensitivity score (HepG2 [9]) | drug sensitivity score (U2OS [10]) | cell viability (Caco-2 [11]; 1 nM) [%] | cell viability (Caco-2 [11]; 10 nM) [%] | cell viability (Caco-2 [11]; 100 nM) [%] | cell viability (Caco-2 [11]; 1000 nM) [%] | cell viability (Caco-2 [11]; 10000 nM) [%] | cell viability (Calu-3 [12]; 1 nM) [%] | cell viability (Calu-3 [12]; 10 nM) [%] | cell viability (Calu-3 [12]; 100 nM) [%] | cell viability (Calu-3 [12]; 1000 nM) [%] | cell viability (Calu-3 [12]; 10000 nM) [%] | cell viability (Vero E6 [13]; 1 nM) [%] | cell viability (Vero E6 [13]; 10 nM) [%] | cell viability (Vero E6 [13]; 100 nM) [%] | cell viability (Vero E6 [13]; 1000 nM) [%] | cell viability (Vero E6 [13]; 10000 nM) [%] | cell viability (HepG2 [14]; 1 nM) [%] | cell viability (HepG2 [14]; 10 nM) [%] | cell viability (HepG2 [14]; 100 nM) [%] | cell viability (HepG2 [14]; 1000 nM) [%] | cell viability (HepG2 [14]; 10000 nM) [%] | cell viability (U2OS [15]; 1 nM) [%] | cell viability (U2OS [15]; 10 nM) [%] | cell viability (U2OS [15]; 100 nM) [%] | cell viability (U2OS [15]; 1000 nM) [%] | cell viability (U2OS [15]; 10000 nM) [%]
1 | CC1CCN(C(c2ccc(F)cc2)c2ccc(C(C)C(=O)O)cc2-c2ccc(C(F)(F)F)cc2)CC1 (stereo not given) [TC-E-5006] | > 10 | > 10 | > 10 | > 10 | > 10 | 0.3 | 0 | 0 | 0.4 | 0 | 105 | 99.5 | 96.2 | 89 | 90.1 | 104 | 92.3 | 94.9 | 96.2 | 103 | 97.4 | 104 | 95.4 | 99.2 | 100 | 97.5 | 103 | 99 | 101 | 81.6 | 102 | 97.9 | 101 | 96.5 | 93.2
2 | CC1(C)OC(=O)NC1=O [dimethadione] | > 10 | > 10 | > 10 | > 10 | > 10 | 0 | 0 | 0 | 0 | 0 | 99.9 | 98.9 | 105 | 97.7 | 98.3 | 92.4 | 107 | 100 | 105 | 109 | 112 | 108 | 108 | 97.7 | 102 | 106 | 102 | 96.9 | 95.9 | 95.1 | 101 | 103 | 95 | 98.6 | 96.2
3 | O=C1c2cccc(O)c2C(=O)c2c(O)cccc21 [dantron] | > 10 | > 10 | > 10 | > 10 | > 10 | 0 | 0.1 | 0.2 | 0 | 0 | 107 | 92.6 | 88.7 | 91.2 | 101 | 103 | 97.5 | 96.1 | 98.6 | 88.4 | 98.5 | 89.2 | 100 | 93.2 | 83.5 | 102 | 105 | 105 | 97.9 | 93.8 | 94.3 | 98.4 | 97.7 | 103 | 99.8
4 | CN(C)CCOc1ccc(-c2nc(-c3ccncc3)c(-c3ccc4c(c3)CC/C4=N\O)[nH]2)cc1 | > 10 | > 10 | > 10 | 0.748 | > 10 | 0 | 0 | 0 | 12.6 | 0 | 106 | 103 | 99.1 | 101 | 98.6 | 99.6 | 94.5 | 114 | 115 | 117 | 102 | 98.5 | 105 | 112 | 113 | 110 | 102 | 96.8 | 39.8 | 3.5 | 93 | 108 | 99.6 | 116 | 114
5 | O=C(c1ccc(F)cc1)C1CCN(CCCCc2ccccc2)CC1 [4-(4-fluorobenzoyl)-1-(4-phenylbutyl)-piperidine] | > 10 | > 10 | > 10 | > 10 | > 10 | 0 | 0.1 | 0 | 0.6 | 0 | 98.9 | 99.6 | 106 | 90.4 | 94.9 | 104 | 106 | 87.9 | 106 | 85.8 | 103 | 105 | 102 | 98.9 | 95.7 | 101 | 96 | 95.2 | 101 | 79.4 | 99.4 | 96.8 | 96.8 | 95.9 | 98.2
6 | Cc1cccc(-c2n[nH]cc2-c2ccc3ncccc3n2)n1 [repsox] | > 10 | > 10 | > 10 | > 10 | > 10 | 0 | 0.7 | 1 | 0 | 0 | 94 | 98.2 | 95 | 105 | 95 | 95.1 | 94.4 | 98.6 | 101 | 78.4 | 102 | 97.8 | 103 | 89.5 | 84.8 | 100 | 104 | 98.8 | 95.9 | 91 | 96 | 101 | 92.4 | 93.4 | 94.8
7 | CC(C)NCC(O)c1ccc2ccccc2c1 (stereo not given) [pronethalol] | > 10 | > 10 | > 10 | > 10 | > 10 | 0 | 0 | 0 | 0 | 0 | 89.8 | 97.7 | 87.4 | 90.8 | 93.1 | 91.1 | 99 | 101 | 93.8 | 93.8 | 112 | 106 | 100 | 94.3 | 98.7 | 105 | 91.6 | 104 | 87 | 106 | 98.5 | 105 | 97.7 | 102 | 95.5
8 | Cc1ccc([N+](=O)[O-])cc1S(=O)(=O)N(C)/N=C/c1cnc2ccc(Br)cn12 [PIK-75] | 0.0669 | 0.0668 | 0.139 | 0.0317 | 0.109 | 18.3 | 17.4 | 22.3 | 26.8 | 23 | 98.8 | 90.3 | 57.9 | 28.4 | 33.3 | 102 | 103 | 52.6 | 35.6 | 46.7 | 105 | 101 | 69.7 | 0.7 | 5.3 | 97.9 | 84.7 | 26 | 11.1 | 10.6 | 98.6 | 96.6 | 53.8 | 4.2 | 0.8
9 | CN1CCC(OC(c2ccccc2)c2ccccc2)CC1 [diphenylpyraline] | > 10 | > 10 | > 10 | > 10 | > 10 | 0 | 0 | 0 | 0 | 0 | 96.1 | 96.3 | 97.6 | 102 | 94.6 | 97.3 | 90 | 98.7 | 94.9 | 95.1 | 94.6 | 106 | 97.1 | 104 | 109 | 89.7 | 98.2 | 90.6 | 103 | 111 | 103 | 95.7 | 102 | 95.1 | 98.6
10 | CO/N=C(\C(=O)N[C@@H]1C(=O)N2C(C(=O)O)=C(Cn3ccc(=N)n3CCO)CS[C@H]12)c1csc(N)n1 [Cefoselis sulfate] | > 10 | > 10 | > 10 | > 10 | > 10 | 0 | 0 | 0 | 0 | 0 | 106 | 97.6 | 90.7 | 106 | 93.8 | 95.8 | 100 | 95.7 | 96.1 | 104 | 103 | 102 | 105 | 97.2 | 101 | 102 | 116 | 91.4 | 103 | 101 | 96.6 | 103 | 93.8 | 102 | 101
11 | Cc1oc(=O)oc1CN1CCN(c2cc3c(cc2F)c(=O)c(C(=O)O)c2n3C(C)S2)CC1 (stereo not given) [prulifloxacin] | > 10 | > 10 | > 10 | > 10 | > 10 | 0 | 0 | 0 | 0 | 0 | 94.8 | 91.6 | 120 | 103 | 97.8 | 104 | 95.8 | 99.4 | 96.2 | 97.3 | 102 | 111 | 115 | 94.5 | 97.3 | 107 | 112 | 110 | 106 | 97.2 | 95.8 | 99.8 | 100 | 95.7 | 100
12 | N[C@H]1C[C@@H]1c1ccccc1 (racemic) [tranylcypromine] | > 10 | > 10 | > 10 | > 10 | > 10 | 0 | 0 | 0 | 0 | 0 | 90.7 | 106 | 93.7 | 104 | 104 | 92.5 | 97.7 | 97.6 | 100 | 99.7 | 100 | 99.8 | 93.3 | 97.1 | 108 | 104 | 103 | 97 | 98.5 | 100 | 96.6 | 102 | 97.7 | 103 | 103
13 | N=C1CCCN1Cc1[nH]c(=O)[nH]c(=O)c1Cl [tipiracil] | > 10 | > 10 | > 10 | > 10 | > 10 | 0 | 0 | 0 | 0 | 0 | 96.7 | 93.4 | 93.2 | 98.1 | 98.6 | 94.2 | 102 | 89.4 | 97.4 | 101 | 97.6 | 95.9 | 94.9 | 92.6 | 104 | 100 | 89.6 | 96.5 | 101 | 98.7 | 97.4 | 99 | 93.8 | 97.5 | 100
14 | O=C1NC(=O)c2c1c1c3ccccc3[nH]c1c1[nH]c3ccccc3c21 [arcyriaflavin-a] | > 10 | > 10 | > 10 | 0.158 | > 10 | 0.3 | 0 | 0 | 12.6 | 0 | 98.1 | 107 | 99.9 | 98.9 | 85.4 | 105 | 112 | 95.6 | 104 | 106 | 103 | 103 | 99.5 | 92.1 | 91.7 | 91.7 | 101 | 86.3 | 43.3 | 47.4 | 104 | 99.8 | 101 | 96.9 | 93.7
